Assay results from patent US20170333390A1, “PHYTOCHEMICAL COMPOSITIONS INCLUDING SESAMIN FOR ANTI-INFLAMMATORY, ANTI-CYTOKINE STORM, AND OTHER USES” (CHIANG MAI UNIVERSITY, priority 2009, published 2017).

Tested on: IL-1 gene expression in LPS induced synovial fibroblast (SF) cells
Assay: IL-1 gene expression relative to GAPDH in LPS induced synovial fibroblast cells (RT-PCR)
Assay type: cell-based
Conditions: 24 hours
Method: Experiments were conducted to evaluate the effect of particular phytochemical compositions provided by the present disclosure on IL-1 gene expression in specified cells found within a body of a living organism. The cells used for the experiments described in example one are lipopolysaccharide (LPS) induced synovial fibroblast (SF) cells. The SF cells were isolated from synovium tissue (also referred to as synovial tissue) using standard cell isolation techniques or methods known to a person of ordinary skill in the art. In addition, LPS is obtained from a commercial source, for example Sigma-Aldrich Co. It is understood by a person having ordinary skill in the art that the SF cells may be substituted with other immune cells found within the body, for example peripheral blood mononuclear cells, lymphocytes, monocytes, and macrophages, which can be isolated using techniques or methods known to a person of ordinary skill in the art. […]
The amount or level of IL-1 gene expression in the SF cells was measured or determined using methods or techniques known to a person having ordinary skill in the relevant art. In example 1, Real-Time PCR (RT-PCR) was used for quantifying the amount of IL-1 gene expression in the SF cells. IL-1beta or IL-1β specific primers were used during RT-PCR, thereby facilitating the quantification of IL-1β gene expression in the SF cells. […]

Structure (SMILES): c1cc2c(cc1[C@H]1OC[C@H]3[C@@H]1CO[C@@H]3c1ccc3c(c1)OCO3)OCO2 [sesamin]
- decrease in IL-1 gene expression relative to GAPDH (0.025 mM sesamin (culture 4), compared to control culture 3 (LPS 0.2 μg/ml + DMSO)): approximately 20%
- decrease in IL-1 gene expression relative to GAPDH (1.0 mM sesamin (culture 9), compared to control culture 2 (LPS 0.2 μg/ml)): approximately 65%
